“And” between values parts separate entries of the source, which are not always exact repeats. Equal entries are not always repeated.
What was measured:
[1] = target: T1, STAT3 protein (residues 127–688) (Homo sapiens, UniProt P40763); assay: Fluorescence polarization (FP) assay, 5-FAM-G(pTyr)LPQTV-NH2 peptide; assay type: binding; conditions: 200 nM STAT3, 5 nM fluorescent peptide, 1 h at 37 °C preincubation, mean ± 95% confidence interval, 3 replicas
T1 construct: The STAT3 protein (residues 127–688) was expressed and purified; made in house
T1 sequence (P40763 127-688): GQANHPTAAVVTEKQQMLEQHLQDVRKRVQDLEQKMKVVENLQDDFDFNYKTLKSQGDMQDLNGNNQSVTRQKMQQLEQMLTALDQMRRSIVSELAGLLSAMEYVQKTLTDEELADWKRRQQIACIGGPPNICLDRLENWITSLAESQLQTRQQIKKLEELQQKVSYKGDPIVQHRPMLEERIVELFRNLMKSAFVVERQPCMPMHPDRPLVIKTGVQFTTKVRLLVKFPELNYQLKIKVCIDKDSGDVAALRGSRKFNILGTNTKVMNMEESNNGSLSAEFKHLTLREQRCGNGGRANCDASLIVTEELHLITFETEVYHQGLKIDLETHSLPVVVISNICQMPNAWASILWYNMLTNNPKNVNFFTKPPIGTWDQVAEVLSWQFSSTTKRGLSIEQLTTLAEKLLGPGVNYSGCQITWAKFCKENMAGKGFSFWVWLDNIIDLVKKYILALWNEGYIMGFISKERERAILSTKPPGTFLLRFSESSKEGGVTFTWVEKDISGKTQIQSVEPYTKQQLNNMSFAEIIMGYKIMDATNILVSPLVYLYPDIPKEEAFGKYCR
Description: The STAT3 protein (residues 127–688) was expressed and purified as described in our recent work. Fluorescence polarization assays were performed on a Molecular Devices SpectraMax iD5Multimode Microplate Reader (San Jose, CA, USA) using Greiner black 384-well flat-bottom nonbinding microplates with 40 μL final well volumes. The fluorescent peptide (5-FAM-G(pTyr)-LPQTV-NH2, purchased from GenScript Biotech Ltd., Piscataway, NJ, USA), as well as the protein were diluted with a buffer containing 50 mM NaCl, 10 mM HEPES (4-(2-hydroxyethyl)-1-piperazineethanesulfonic acid), 1 mM EDTA (ethylenediaminetetraacetic acid), 2 mM DTT (dithiothreitol), and 0.1% Triton X-100, pH 7.5. The final concentration of the STAT3 protein was 200 nM, and the fluorescent peptide was added at a final concentration of 5 nM. The wells were treated with varying concentrations of inhibitor compounds, with a 5% final DMSO content. Protein and inhibitors were incubated at 37 °C for 1 h. Then the fluorescence peptide was added, and then the plate was incubated for another 20 min prior to the fluorescence readout (extinction wavelength: 475 nm, emission wavelength: 520 nm). The measurements were carried out using 3 parallel biological replicas. Fluorescence polarization was calculated from the perpendicular and parallel fluorescence intensities and then plotted against concentration. The IC50 values were determined after fitting […] dose–response curves on data points using GraphPad Prism 8.0.1. software.
Figure S6. Fluorescence polarization assay results. Nonlinear curve fitting was used ([Inhibitor] vs. response - Variable slope (four parameters)) with least squares fitting. IC50s are presented with 95% confidence intervals, measurements were done in 3 parallel biological replicas.

[2] = target: STAT3 protein (Homo sapiens, UniProt P40763); assay: Intact protein LC-MS labelling; assay type: binding
STAT3 protein, sequence (P40763 127-688 limits assumed): as the sequence (P40763 127-688) above
From the text: 1 Overview of the virtual screening workflow and hit follow-up. (a) Overview of the covalent docking virtual screening workflow, including representation of the key residues inside the binding site and highlighting the C259 residue. Remaining molecules after each step are included in parentheses. (b) Schematic representation of the expected mass peaks and shifts from the MS results for single and multiple labeling. The values assigned to the peaks for other than the peak corresponding to the unlabeled protein represents mass shift(s) resulting from successful labeling.
RPLC-MS analysis of the intact proteins were performed on a a Triple TOF 5600+ hybrid Quadrupole-TOF LC/MS/MS system (Sciex, MA, USA) equipped with a DuoSpray IonSource coupled with a Shimadzu Prominence LC20 UFLC (Shimadzu, Japan) system consisting of quaternary pump, an autosampler and a thermostatted column compartment. Chromatographic separation was achieved on the Discovery® BIO Wide Pore C-18-5 (250 mm × 2.1mm, 5 μm, 300 Å) HPLC column. Sample was eluted in gradient elution mode using solvent A (0.1% formic acid in water) and solvent B (0.1% formic acid in ACN). The initial condition was 5% B for 7 min, followed by a linear gradient to 90% B by […], from 55 to 63 min 90% B was retained; and from 63 to 65 min back to initial condition with 5 % eluent B and retained for 10 min. Flow rate was set to 0.2 ml/min. […]

Q: With `C=CC(=O)N1CCCC(C(=O)NCc2ccc3c(c2)OCO3)C1` (centres unmarked) [6a, 1-acryloyl-N-(benzo[d][1,3]dioxol-5-ylmethyl)piperidine-3-carboxamide] as the molecule, how does the IC50 [1] read?
A: The IC50 was 50.4 ± 39.4 µM.

Q: How did the IC50 [1] turn out when `C=CC(=O)N1CCCC(O)(C(=O)NCc2ccc3c(c2)OCO3)C1` (centres unmarked) [6b, 1-acryloyl-N-(benzo[d][1,3]dioxol-5-ylmethyl)-3-hydroxypiperidine-3-carboxamide] was run?
A: The IC50 was 2.91 ± 0.66 µM.

Q: What about the “Covalent labelling of STAT3 (single vs multiple)” value [2] of the same molecule?
A: Its value is “single labeling”.

Q: How did the IC50 [1] turn out when `CCC(=O)N1CCCC(C(=O)NCc2ccc3c(c2)OCO3)C1` (centres unmarked) [10a, N-(benzo[d][1,3]dioxol-5-ylmethyl)-1-propionylpiperidine-3-carboxamide] was run?
A: Its IC50 is 141 ± 53.4 µM.

Q: Which IC50 [1] does the source give for `CCC(=O)N1CCCC(O)(C(=O)NCc2ccc3c(c2)OCO3)C1` (centres unmarked) [10b, N-(benzo[d][1,3]dioxol-5-ylmethyl)-3-hydroxy-1-propionylpiperidine-3-carboxamide] here?
A: The IC50 was 86.7 ± 49.9 µM.

Q: For `C=CC(=O)N1CCCC(C(=O)NCc2cc(Br)c3c(c2)OCO3)C1` (centres unmarked) [K2], which IC50 [1] is on record?
A: The IC50 was 40.7 ± 16.7 µM.

Q: For `C=CC(=O)N1CC(C(=O)NCCN2CC3CCCCN3C2=O)C1` (centres unmarked) [K3], which IC50 [1] is on record?
A: Its IC50 is 255 ± 124 µM.

Q: How did the IC50 [1] turn out when `C=CC(=O)N1CCC(C(=O)NCC(O)c2c(F)cccc2F)CC1` (centres unmarked) [K6] was run?
A: The IC50 was 44.9 ± 22.7 µM.

Q: `C=CC(=O)N1CCC(C(=O)N2CCN(C(=O)Cc3ccccc3C)CC2)CC1` [K10] was tested. Which IC50 [1] did it give?
A: The IC50 was 94.6 µM and 94.5 µM.

Q: `C=CS(=O)(=O)N1CCCC(C(=O)NCc2ccc3c(c2)OCO3)C1` (centres unmarked) [compound 8, N-(benzo[d][1,3]dioxol-5-ylmethyl)-1-(vinylsulfonyl)piperidine-3-carboxamide] was tested. Which IC50 [1] did it give?
A: Its IC50 is 33.4 ± 5 µM.

Q: And the “Covalent labelling of STAT3 (single vs multiple)” value [2]?
A: Its value is “labeled the protein at multiple residues”.

Source: publication PMC12169489, “Allosteric Covalent Inhibitors of the STAT3 Transcription Factor from Virtual Screening” (ACS Medicinal Chemistry Letters, 2025)
